Several values for one entry are separate records, joined by “and”; a condition that tells them apart may be missing. Identical values can stand only once. Like-named read-outs stand apart in the source and are kept apart here.
Tests used:
polyamines synthesis = conditions: mouse model of osteoporosis; cited from earlier work
colonic microbiota = experiment: Prodigest short-term colonic incubations with fecal inocula of five donors; format: cell-based, human; conditions: FIG. 5
Procedure: Fecal material was collected from five healthy adult donors. Fecal suspensions were prepared and mixed with an internally optimized cryoprotectant. The obtained suspensions were aliquoted, flash frozen and then preserved at −80° C. (cryostock). Just before the experiment, fecal samples were defrosted and immediately added to the reactors. A short-term screening assay typically consists of a colonic incubation of a single dose of a test compound under conditions representative for the proximal large intestine, using bacterial inocula from selected donors as microbial sources. At the start of the short-term colonic incubations, test ingredients were added to a sugar-depleted nutritional medium containing basal nutrients of the colon. Because nutrients of this sugar-depleted nutritional medium will also be fermented by the colonic microbiota, a blank containing only the sugar-depleted nutritional medium (without product) was included for each donor. Finally, fecal inocula of five donors were added (healthy adult humans with no history of antibiotic use 6 months preceding the experiment). […] Reactors were incubated for 48 h at 37° C., under shaking (90 rpm) and anaerobic conditions. The incubations were performed in fully independent reactors with sufficiently high volume in order to not only ensure robust microbial fermentation, but also to allow the collection of multiple samples over time. Sample collection enables assessment of metabolite production and thus to understand the complex microbial interactions that are taking place. An assessment was made of the change in pH, and of gas, SCFA, ammonium and lactate production at the start of the incubation and after 6 h, 24 h and 48 h. Quantitative deep shotgun sequencing was performed at the start and after 24 h and 48 h of incubation. Targeted metabolic analysis of eight polyamines, an amino acid and a neurotransmitter was performed at the start of the incubation, and after 6 h, 24 h and 48 h. Targeted metabolic analysis: Eight different polyamines were targeted, more specifically putrescine, agmatine, acetyl-agmatine, omithine, spermidine, spermine, citrulline and 4-guanidinobutanoic acid. Additionally, samples were analyzed for amino acid arginine and neurotransmitter gamma-Aminobutyric acid (GABA).

[1] = biological target: imidazoline or α-2-adrenergic receptors; conditions: cited from earlier work
[2] = test system: gut microbial polyamines, longevity; conditions: arginine intake from 0 to 9 mg/g body weight; abolished after antibiotics use; cited from earlier work
[3] = No observed effect level (max dose without toxicity); format: in vivo; conditions: [33]
autophagy = conditions: depending on organ/cell type; cited from earlier work
[4] = cited from earlier work
[5] = rat, ten minutes after radiolabeled intravenous (IV) injection; cited from earlier work
[6] = human, putrescine in test meal; cited from earlier work
α2-Adrenoceptors = conditions: Bovine adrenal cortex; cited from earlier work
α2A-Adrenoceptors = α2A-Adrenoceptors (Homo sapiens, UniProt P08913); conditions: Human recombinant receptor; cited from earlier work
α2B-Adrenoceptors = α2B-Adrenoceptors (Homo sapiens, UniProt P18089); conditions: Human recombinant receptor; cited from earlier work
α2C-Adrenoceptors = α2C-Adrenoceptors (Homo sapiens, UniProt P18825); conditions: Human recombinant receptor; cited from earlier work
[7] = biological target: I1-Imidazoline binding sites; conditions: Bovine ventrolateral medulla; cited from earlier work
[8] = biological target: I1-Imidazoline binding sites; conditions: Bovine adrenomedullary cell; cited from earlier work
[9] = biological target: I1-Imidazoline binding sites; conditions: Human platelet-purified plasma membranes; cited from earlier work
[10] = biological target: I1-Imidazoline binding sites; conditions: Rat stomach membranes; cited from earlier work
[11] = biological target: I2-Imidazoline binding sites; conditions: Rat aorta smooth muscle cells; cited from earlier work
[12] = biological target: I2-Imidazoline binding sites; conditions: Rat whole brain membranes; cited from earlier work
[13] = biological target: I2-Imidazoline binding sites; conditions: Rat stomach membranes; cited from earlier work
[14] = biological target: I2-Imidazoline binding sites; conditions: Bovine adrenal chromaffin cells; cited from earlier work
[15] = biological target: I2-Imidazoline binding sites; conditions: Bovine endothelial cells; cited from earlier work
[16] = biological target: I2-Imidazoline binding sites; conditions: Human platelet-purified internal membranes; cited from earlier work
[17] = biological target: I2-Imidazoline binding sites; conditions: Human atrial appendages; cited from earlier work
[18] = biological target: I2-Imidazoline binding sites; conditions: Chicken brain membranes; cited from earlier work
[19] = biological target: I2-Imidazoline binding sites; conditions: Frog whole brain membranes; cited from earlier work
[20] = biological target: I2-Imidazoline binding sites; conditions: Rabbit whole brain membranes; cited from earlier work
[21] = biological target: Presynaptic imidazoline receptor; conditions: Human atrial appendages; cited from earlier work
[22] = test system: Presynaptic imidazoline receptor; conditions: Rabbit aorta; at 0.1 and 1 μM; cited from earlier work
[23] = biological target: NMDA receptor, polyamine binding site; conditions: Rat cerebral cortex; cited from earlier work
[24] = biological target: NMDA receptor, MK-801 binding site; conditions: Rat cerebral cortex; cited from earlier work
NMDA receptor = biological target: T1, NMDA receptor; conditions: Rat cerebral membrane; cited from earlier work
T1 construct: Ki; other: Rat cerebral membrane

[25] = biological target: NMDA receptor, NR1-ζ/NR2-ε1 (Mus musculus, UniProt P35436+P35438); conditions: Recombinant receptor; cited from earlier work
[26] = biological target: NMDA receptor, NR1-ζ/NR2-ε2 (Mus musculus, UniProt P35438+Q01097); conditions: Recombinant receptor; cited from earlier work
[27] = biological target: NMDA receptor, NR1-ζ/NR2-ε3 (Mus musculus, UniProt P35438+Q01098); conditions: Recombinant receptor; cited from earlier work
[28] = biological target: NMDA receptor, NR1-ζ/NR2-ε4 (Mus musculus, UniProt P35438+Q03391); conditions: Recombinant receptor; cited from earlier work
5-HT3 receptor = 5-HT3 receptor (Mus musculus, UniProt P23979); conditions: Mouse N1E-115 cells; cited from earlier work
σ2-Binding sites [29] = biological target: σ2-Binding sites (Rattus norvegicus, UniProt Q5U3Y7); conditions: Rat stomach membranes; cited from earlier work
σ2-Binding sites [30] = biological target: σ2-Binding sites (Mus musculus, UniProt Q8VD00); conditions: Mouse N1E-115 cells; cited from earlier work
[31] = biological target: Nicotinic acetylcholine receptors; conditions: Chick retina; cited from earlier work
α-2 adrenoreceptors = conditions: depending on organs/cell type; read-out: Affinity for α-2 adrenoreceptors (Ki); cited from earlier work
[32] = test system: mouse kidney proximal tubule, Ras transformed NIH-3T3 fibroblast, mouse glomerular mesangial, human Schwann tumor, rat glomerular endothelial cells, human …; conditions: several ex-vivo and in-vitro cell assays; cited from earlier work
HTC rat hepatoma cells = conditions: cited from earlier work
[33] = test system: ODC and SSAT in liver and kidney; conditions: 456.6 mg/kg i.p., suiss female mice; cited from earlier work

Chain of 5-HT3 receptor (P23979 24-489): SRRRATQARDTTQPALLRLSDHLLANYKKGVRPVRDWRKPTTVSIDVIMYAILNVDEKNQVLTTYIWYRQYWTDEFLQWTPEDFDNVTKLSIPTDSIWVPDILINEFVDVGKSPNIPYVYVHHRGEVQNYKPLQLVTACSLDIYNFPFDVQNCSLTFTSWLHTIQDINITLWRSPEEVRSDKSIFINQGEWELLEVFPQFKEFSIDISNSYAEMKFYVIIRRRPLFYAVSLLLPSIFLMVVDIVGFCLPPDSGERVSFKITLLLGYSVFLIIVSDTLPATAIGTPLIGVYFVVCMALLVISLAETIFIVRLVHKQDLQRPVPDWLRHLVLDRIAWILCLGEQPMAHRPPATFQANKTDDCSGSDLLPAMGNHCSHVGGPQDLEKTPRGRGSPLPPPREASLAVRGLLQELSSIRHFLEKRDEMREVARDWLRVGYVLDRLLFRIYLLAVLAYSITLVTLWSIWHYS
Chain of α2B-Adrenoceptors (P18089 whole entry): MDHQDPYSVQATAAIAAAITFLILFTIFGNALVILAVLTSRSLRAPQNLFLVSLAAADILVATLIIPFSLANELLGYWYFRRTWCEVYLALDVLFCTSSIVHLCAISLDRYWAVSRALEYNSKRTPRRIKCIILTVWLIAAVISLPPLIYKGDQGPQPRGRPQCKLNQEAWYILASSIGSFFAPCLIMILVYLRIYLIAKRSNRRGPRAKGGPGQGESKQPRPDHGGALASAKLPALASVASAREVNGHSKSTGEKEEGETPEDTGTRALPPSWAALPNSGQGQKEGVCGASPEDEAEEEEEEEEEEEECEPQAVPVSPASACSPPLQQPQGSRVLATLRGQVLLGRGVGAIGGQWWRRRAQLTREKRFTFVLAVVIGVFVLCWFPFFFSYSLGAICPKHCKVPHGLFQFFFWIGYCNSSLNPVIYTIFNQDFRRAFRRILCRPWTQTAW
Chain of NMDA receptor, NR1-ζ/NR2-ε4 (Q03391 28-1323, other chains not shown): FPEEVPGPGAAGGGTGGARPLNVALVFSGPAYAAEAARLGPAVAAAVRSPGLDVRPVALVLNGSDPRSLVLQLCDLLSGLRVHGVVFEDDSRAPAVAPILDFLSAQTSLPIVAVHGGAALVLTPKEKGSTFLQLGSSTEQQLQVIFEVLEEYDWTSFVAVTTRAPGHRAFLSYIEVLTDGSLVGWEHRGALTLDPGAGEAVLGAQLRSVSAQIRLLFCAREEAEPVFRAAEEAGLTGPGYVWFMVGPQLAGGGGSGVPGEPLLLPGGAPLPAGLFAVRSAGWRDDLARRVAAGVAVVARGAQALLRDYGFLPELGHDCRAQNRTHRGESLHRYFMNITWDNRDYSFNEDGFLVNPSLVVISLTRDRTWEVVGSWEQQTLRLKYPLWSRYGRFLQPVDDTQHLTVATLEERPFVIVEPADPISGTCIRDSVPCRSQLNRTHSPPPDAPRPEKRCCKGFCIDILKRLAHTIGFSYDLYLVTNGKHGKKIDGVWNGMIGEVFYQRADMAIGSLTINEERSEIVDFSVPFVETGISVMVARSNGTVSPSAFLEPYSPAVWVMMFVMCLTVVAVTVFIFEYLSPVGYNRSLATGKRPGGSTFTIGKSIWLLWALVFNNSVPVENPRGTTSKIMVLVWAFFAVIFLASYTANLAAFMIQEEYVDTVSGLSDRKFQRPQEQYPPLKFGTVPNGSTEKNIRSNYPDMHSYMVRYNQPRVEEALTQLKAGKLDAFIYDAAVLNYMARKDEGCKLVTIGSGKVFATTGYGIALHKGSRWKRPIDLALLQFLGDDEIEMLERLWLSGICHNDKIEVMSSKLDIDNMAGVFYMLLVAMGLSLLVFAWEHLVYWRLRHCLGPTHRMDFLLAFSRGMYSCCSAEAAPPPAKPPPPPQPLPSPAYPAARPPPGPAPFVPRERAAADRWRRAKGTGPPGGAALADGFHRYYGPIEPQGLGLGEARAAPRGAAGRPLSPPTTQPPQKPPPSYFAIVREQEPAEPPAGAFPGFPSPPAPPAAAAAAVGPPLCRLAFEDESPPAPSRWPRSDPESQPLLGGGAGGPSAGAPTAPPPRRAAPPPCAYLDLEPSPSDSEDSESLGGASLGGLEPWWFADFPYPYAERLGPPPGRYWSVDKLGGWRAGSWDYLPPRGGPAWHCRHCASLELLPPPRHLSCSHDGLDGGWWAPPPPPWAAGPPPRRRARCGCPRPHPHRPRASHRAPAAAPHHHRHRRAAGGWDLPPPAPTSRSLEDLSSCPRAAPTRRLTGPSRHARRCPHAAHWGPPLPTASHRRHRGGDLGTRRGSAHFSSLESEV
Chain of NMDA receptor, NR1-ζ/NR2-ε2 (Q01097 27-1482, other chains not shown): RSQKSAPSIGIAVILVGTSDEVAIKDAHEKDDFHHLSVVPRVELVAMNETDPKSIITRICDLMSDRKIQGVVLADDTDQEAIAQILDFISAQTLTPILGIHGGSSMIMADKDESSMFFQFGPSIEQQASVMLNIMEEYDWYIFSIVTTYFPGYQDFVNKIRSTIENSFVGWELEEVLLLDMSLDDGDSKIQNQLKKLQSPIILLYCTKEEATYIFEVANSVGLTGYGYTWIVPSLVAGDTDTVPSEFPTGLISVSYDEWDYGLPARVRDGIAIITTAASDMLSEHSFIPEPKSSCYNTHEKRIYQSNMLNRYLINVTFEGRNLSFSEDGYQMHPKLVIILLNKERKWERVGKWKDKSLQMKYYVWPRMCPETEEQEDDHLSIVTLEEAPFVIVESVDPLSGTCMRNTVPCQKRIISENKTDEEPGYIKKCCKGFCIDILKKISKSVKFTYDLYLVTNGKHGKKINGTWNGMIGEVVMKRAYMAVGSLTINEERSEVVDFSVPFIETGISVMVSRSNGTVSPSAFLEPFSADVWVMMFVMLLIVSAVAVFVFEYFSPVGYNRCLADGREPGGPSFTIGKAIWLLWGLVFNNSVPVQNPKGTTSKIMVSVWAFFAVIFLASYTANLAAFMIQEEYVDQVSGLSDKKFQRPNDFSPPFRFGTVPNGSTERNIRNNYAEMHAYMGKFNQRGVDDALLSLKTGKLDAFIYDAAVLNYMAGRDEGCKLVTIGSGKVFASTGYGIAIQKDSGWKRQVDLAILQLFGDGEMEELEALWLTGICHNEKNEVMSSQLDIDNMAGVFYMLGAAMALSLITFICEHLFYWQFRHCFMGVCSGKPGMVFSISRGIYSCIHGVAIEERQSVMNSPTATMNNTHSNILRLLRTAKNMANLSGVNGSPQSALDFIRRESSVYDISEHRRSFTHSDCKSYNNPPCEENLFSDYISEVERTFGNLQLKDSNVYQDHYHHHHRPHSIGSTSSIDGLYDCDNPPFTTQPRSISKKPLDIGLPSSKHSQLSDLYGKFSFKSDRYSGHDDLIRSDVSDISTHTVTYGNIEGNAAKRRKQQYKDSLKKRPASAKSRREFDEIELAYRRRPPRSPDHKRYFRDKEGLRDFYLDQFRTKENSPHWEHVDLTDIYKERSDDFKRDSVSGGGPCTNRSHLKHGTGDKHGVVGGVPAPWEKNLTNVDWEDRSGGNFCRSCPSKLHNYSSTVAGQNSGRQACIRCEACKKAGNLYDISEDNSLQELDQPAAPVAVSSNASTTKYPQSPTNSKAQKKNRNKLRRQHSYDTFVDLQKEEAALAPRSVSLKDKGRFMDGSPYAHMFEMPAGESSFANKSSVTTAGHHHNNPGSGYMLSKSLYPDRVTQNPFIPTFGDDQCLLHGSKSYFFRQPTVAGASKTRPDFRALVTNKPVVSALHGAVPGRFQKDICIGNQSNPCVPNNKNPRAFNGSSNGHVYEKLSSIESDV
Chain of α2A-Adrenoceptors (P08913 whole entry): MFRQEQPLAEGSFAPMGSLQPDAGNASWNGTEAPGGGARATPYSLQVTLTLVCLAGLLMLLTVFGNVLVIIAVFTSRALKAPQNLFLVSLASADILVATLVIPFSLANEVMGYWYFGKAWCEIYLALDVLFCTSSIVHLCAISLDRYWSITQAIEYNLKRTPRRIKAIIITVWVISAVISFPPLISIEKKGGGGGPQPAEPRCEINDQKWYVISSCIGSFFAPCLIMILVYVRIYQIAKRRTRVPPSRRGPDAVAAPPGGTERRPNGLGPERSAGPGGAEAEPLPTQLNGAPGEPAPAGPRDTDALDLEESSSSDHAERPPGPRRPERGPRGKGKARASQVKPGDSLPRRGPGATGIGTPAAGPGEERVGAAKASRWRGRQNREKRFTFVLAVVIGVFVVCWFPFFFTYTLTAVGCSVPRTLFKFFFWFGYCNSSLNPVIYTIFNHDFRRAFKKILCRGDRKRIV
Chain of α2C-Adrenoceptors (P18825 whole entry): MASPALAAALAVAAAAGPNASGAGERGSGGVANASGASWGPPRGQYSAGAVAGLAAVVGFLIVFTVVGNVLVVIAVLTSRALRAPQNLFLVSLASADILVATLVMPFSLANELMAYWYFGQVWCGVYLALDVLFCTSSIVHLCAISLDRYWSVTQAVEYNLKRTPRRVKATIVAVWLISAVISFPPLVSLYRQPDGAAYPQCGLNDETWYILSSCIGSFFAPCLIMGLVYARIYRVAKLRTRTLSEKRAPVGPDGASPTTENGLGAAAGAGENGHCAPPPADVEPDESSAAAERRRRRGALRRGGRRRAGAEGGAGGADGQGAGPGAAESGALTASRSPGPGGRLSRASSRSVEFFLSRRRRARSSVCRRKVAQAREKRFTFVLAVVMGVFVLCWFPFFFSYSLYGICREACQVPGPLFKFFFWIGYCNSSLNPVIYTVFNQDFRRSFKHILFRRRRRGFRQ
Chain of σ2-Binding sites (Mus musculus, UniProt Q8VD00) (Q8VD00 whole entry): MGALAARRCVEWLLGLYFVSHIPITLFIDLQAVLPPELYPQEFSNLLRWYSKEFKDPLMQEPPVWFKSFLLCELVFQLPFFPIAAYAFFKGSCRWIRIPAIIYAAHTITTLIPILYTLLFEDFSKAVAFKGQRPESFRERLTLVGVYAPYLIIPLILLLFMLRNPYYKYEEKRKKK
Chain of σ2-Binding sites (Rattus norvegicus, UniProt Q5U3Y7) (Q5U3Y7 whole entry): as the sequence (Q8VD00 whole entry) above, with L4V, A5T, L26M, V33L, L71F, A105V, L118I, V127I, S136N, Y169F counted along it

Structure (SMILES): CC(=O)NCC(=O)O.CC(=O)NCC(=O)O.N=C(N)c1ccc(N=NNc2ccc(C(=N)N)cc2)cc1 [diminazene aceturate]
- effect on warm-induced bone benefits (polyamines synthesis): limited the warm-induced beneficial effects

Structure (SMILES): N=C(N)NCCC[C@H](N)C(=O)O [Arginine, arginine]
- agmatine produced (colonic microbiota; stool sample of donor A): about 5 μM
- agmatine produced (colonic microbiota; stool sample of donor B): about 3 μM
- agmatine produced (colonic microbiota; stool sample of donor C): did not produce agmatine
- agmatine produced (colonic microbiota; stool sample of donor D): did not produce agmatine
- agmatine produced (colonic microbiota; stool sample of donor E): about 5 μM
- Ki [1]: 5000 µM
- effect on fecal concentration of putrescine and spermidine [2]: increased

Structure (SMILES): NCCCCNCCCN [Spermidine, spermidine]
- no observed effect level (max dose without toxicity), total amount in brackets [3]: (~5.4 g)
- Dose required for cytoprotective effect/e.g. autophagy (autophagy): 10 to 100 µM
- no observed effect level (max dose without toxicity) [4, 33]: 83 mg/kg body mg/kg body weight/day
- plasma decrease [5]: 89%

Structure (SMILES): NCCCNCCCCNCCCN [Spermine, spermine]
- plasma decrease [5]: 30%

Structure (SMILES): NCCCCN [Putrescine, putrescine]
- no observed effect level (max dose without toxicity), total amount in brackets [3]: (~12 g)
- no observed effect level (max dose without toxicity) [4, 33]: 180 mg/kg body mg/kg body weight/day
- plasma decrease [5]: 67%
- recovered in blood [6]: Up to 20%

Structure (SMILES): NCCCCN=C(N)N [Agmatine, (4-aminobutyl) guanidine]
- Ki (α2-Adrenoceptors): 11 to 20 µM and 17 µM
- Ki (α2A-Adrenoceptors): 47 µM
- Ki (α2B-Adrenoceptors): 164 µM
- Ki (α2C-Adrenoceptors): 26.3 µM
- Ki [7]: 0.7 µM
- Ki [8]: 0.127 µM
- Ki [9]: 0.033 µM
- Ki [10]: 0.098 µM
- Ki [11]: 0.24 µM
- Ki [12]: 417 µM
- Ki [13]: 266 µM
- Ki [14]: 6 µM
- Ki [15]: 0.24 µM
- Ki [16]: 74.4 µM
- Ki [17]: > 100 µM
- Ki [18]: 0.63 µM
- Ki [19]: 7.5 µM
- Ki [20]: 856 µM
- Ki [21]: > 300 µM
- Inhibition [22]: Inhibition at 0.1 and 1 μM
- Ki [23]: 14.8 µM
- Ki [24]: 219 µM
- Ki (NMDA receptor): 50 µM
- IC50 [25]: 286 µM
- IC50 [26]: 330 µM
- IC50 [27]: 326 µM
- IC50 [28]: 289 µM
- IC50 (5-HT3 receptor): 708 µM
- Ki (5-HT3 receptor): > 1000 µM
- Ki (σ2-Binding sites [29]): 668 µM
- IC50 (σ2-Binding sites [30]): > 1000 µM
- IC50 [31]: > 1000 µM
- Ki (α-2 adrenoreceptors): 0.8 to 164 µM
- no observed effect level (max dose without toxicity) ([4]; in vivo): 2.67 g daily
- level at which agmatine interferes with polyamine metabolism, nitric oxide synthase and promotes antiproliferative effects [32]: 1 mM
- level at which agmatine interferes with polyamine metabolism, nitric oxide synthase and promotes antiproliferative effects (HTC rat hepatoma cells): 0.01 mM
- effect on ODC and SSAT in liver and kidney [33]: inhibition of ODC and activation of SSAT
- effect on epithelial cell proliferation in kidney renal tubule [33]: partial reduction of epithelial cell proliferation

Reference: US20250099515A1, “LACTOBACILLUS ACIDOPHILUS TO INCREASE AGMATINE PRODUCTION BY MICROBIOTA” (SOCIETE DES PRODUITS NESTLE S.A., priority 2021, published 2025)
